Where “and” joins values, the source holds several entries; their conditions need not be identical. Equal values may be shown once.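 Briefly, cells in 96-well plates were exposed to five compound concentrations for 48 h, and endpoints were estimated by linear interpolation. GI50: concentration for 50% inhibition of growth. TGI is the concentration that stops growth completely.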
Experiments:
Assay in all cases: NCI tumour cell line growth inhibition, 48 h
[1] = tested on: DMS 114 small cell lung
[2] = tested on: DLD-1 colon
[3] = tested on: DMS 273 small cell lung
[4] = tested on: OVCAR-4 ovarian
[5] = tested on: NCI-H460 lung
[6] = tested on: NCI-H23 lung
[7] = tested on: HOP-18 NSCLC
[8] = tested on: KM12 colon
[9] = tested on: M19-MEL melanoma
[10] = tested on: LXFL 529 NSCLC
[11] = tested on: KM20L2 colon
[12] = tested on: SNB-78 CNS
[13] = tested on: P388/ADR leukemia

| SMILES | TGI [1] [µM] | TGI [2] [µM] | TGI [3] | TGI [4] | TGI [5] | TGI [6] | TGI [7] | TGI [8] | TGI [9] | TGI [10] [µM] | TGI [11] [µM] | TGI [12] [µM] | GI50 [3] [µM] | GI50 [4] [µM] | GI50 [5] [µM] | GI50 [6] [µM] | TGI [13] [µM] | GI50 [8] [µM] | GI50 [9] [µM] | GI50 [11] [µM] |
| --- | --- | --- | --- | --- | --- | --- | --- | --- | --- | --- | --- | --- | --- | --- | --- | --- | --- | --- | --- | --- |
| O=C1N(Cl)C(=O)C(c2ccc(Cl)cc2)(c2ccc(Cl)cc2)N1Cl | > 100 | > 100 | > 100 µM | > 100 µM | > 100 µM | > 100 µM | > 100 µM | > 100 µM | > 100 µM | > 100 | > 100 | – | – | – | – | – | – | – | – | – |
| S=C1NCCN1 | > 100 | > 100 | > 100 µM | > 100 µM | – | > 100 µM | – | > 100 µM | > 100 µM | > 100 | > 100 | > 100 | – | – | – | – | – | – | – | – |
| C[n+]1c2ccccc2c(NCC(=O)O)c2ccccc21 | > 100 | > 100 | > 100 µM | > 100 µM | > 100 µM | > 100 µM | > 100 µM | > 100 µM | > 100 µM | > 100 | > 100 | > 100 | – | – | – | – | – | – | – | – |
| COc1cc2c(c(OC)c1O)-c1ccc(SC)c(=O)cc1C(NC(C)=O)CC2 (stereo not given) | < 0.0143 | > 100 | > 100 µM | > 100 µM | > 11 µM | 3.79 µM | > 100 µM | – | > 100 µM | > 100 | 0.0246 | > 100 | – | – | – | – | – | – | – | – |
| CC1(C)CCc2ccc(OCCC(=O)O)cc2O1 | > 100 | > 100 | > 100 µM | > 100 µM | > 100 µM | > 100 µM | – | > 100 µM | > 100 µM | > 100 | – | > 100 | – | – | – | – | – | – | – | – |
| C=C1C(=O)[C@@]23CC[C@H]4[C@@](C)(CCC[C@@]4(C)C(=O)OC)[C@@H]2CC[C@]1(O)C3 | – | 1.33 | 2.66 µM and 3.08 µM | 3.12 µM and 3.31 µM | 3.45 µM and 13 µM | 5.05 µM and 2.96 µM | 3.62 µM and 3.51 µM | 3.6 µM and 5.81 µM | 2.46 µM and 2.91 µM | – | 3.83 | – | 1.32 | 1.69 | 1.8 | 2.41 | 0.224 | 1.97 | 1.13 | 1.91 |
| CCCCCCNC(=O)C(C)C1CCC2(C)C=CC(=O)C(C)=C2C1O (stereo not given) | > 100 | > 100 | > 100 µM | > 100 µM | > 100 µM | > 100 µM | > 100 µM | > 100 µM | – | – | > 100 | > 100 | – | – | – | – | > 100 | – | – | – |
| N/C(=N\N=C/c1ccc(O)c(O)c1O)NO | 54.8 | 51.2 | 18.5 µM | 25.5 µM | 32.4 µM | 68.4 µM | > 100 µM | 72.5 µM | 48.1 µM | – | 82.5 | > 79.4 | – | – | – | – | 41.6 | – | – | – |
| Cc1c2n(c(=O)[nH]c1=O)C1OC(CO)C(O2)C1N=[N+]=[N-] (stereo not given) | > 100 | > 100 | > 100 µM | > 100 µM | > 100 µM | > 100 µM | – | > 100 µM | > 100 µM | > 100 | > 100 | > 100 | – | – | – | – | – | – | – | – |
